{
  "source": "patent US11040976B2",
  "about": "“Substrate selective inhibitors of insulin-degrading enzyme (IDE) and uses thereof” (President and Fellows of Harvard College, priority 2015, dated 2021)",
  "key": {"[1]": {"target": "T1, IDE (R&D), substrate insulin (Homo sapiens, UniProt P14735)", "T1 construct": "recombinant human IDE42-1019 (R&D Systems); purchased R&D", "T1 sequence (P14735 42-1019)": "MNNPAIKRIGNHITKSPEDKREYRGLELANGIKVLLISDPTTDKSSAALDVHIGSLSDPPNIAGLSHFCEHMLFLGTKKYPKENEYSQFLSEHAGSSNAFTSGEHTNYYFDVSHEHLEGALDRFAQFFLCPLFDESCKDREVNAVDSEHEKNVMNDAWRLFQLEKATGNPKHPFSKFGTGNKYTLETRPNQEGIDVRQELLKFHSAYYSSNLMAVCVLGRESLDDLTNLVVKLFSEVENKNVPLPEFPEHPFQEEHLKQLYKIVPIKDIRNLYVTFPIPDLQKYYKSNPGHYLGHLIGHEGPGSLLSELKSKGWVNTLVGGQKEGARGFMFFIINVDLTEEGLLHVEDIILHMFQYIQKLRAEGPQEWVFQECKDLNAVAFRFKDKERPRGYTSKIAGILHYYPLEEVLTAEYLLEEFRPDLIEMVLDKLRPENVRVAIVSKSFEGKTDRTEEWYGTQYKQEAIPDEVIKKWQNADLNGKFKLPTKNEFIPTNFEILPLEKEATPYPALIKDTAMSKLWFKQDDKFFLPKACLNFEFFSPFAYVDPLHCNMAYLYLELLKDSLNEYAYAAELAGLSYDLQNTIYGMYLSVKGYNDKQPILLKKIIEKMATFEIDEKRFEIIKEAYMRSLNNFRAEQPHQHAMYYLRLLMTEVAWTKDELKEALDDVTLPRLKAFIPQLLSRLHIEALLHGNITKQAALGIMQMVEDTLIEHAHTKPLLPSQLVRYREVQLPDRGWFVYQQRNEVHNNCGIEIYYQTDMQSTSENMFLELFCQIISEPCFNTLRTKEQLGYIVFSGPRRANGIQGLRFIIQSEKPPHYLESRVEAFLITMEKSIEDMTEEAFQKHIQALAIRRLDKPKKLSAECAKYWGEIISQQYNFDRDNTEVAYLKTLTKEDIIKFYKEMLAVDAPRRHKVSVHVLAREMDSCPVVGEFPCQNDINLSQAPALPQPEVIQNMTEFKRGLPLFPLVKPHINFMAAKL", "experiment": "HTRF endpoint assay for IDE-mediated degradation of insulin", "assay_type": "biochemical", "conditions": "HTRF endpoint assays for insulin and glucagon, FIG. 4; compounds 67 μM, 6bK 10 μM", "method": "A solution of 0.8 μg/mL IDE (R&D) in pH 7.5 buffer containing 20 mM HEPES, 135 mM NaCl (24 μL) was transferred to a 200 μL tube strip, and combined with 1 μL of each inhibitor (10 mM in DMSO, or as a 3-fold dilution series). A solution of insulin in “Assay Diluent” (CisBio, 25 μL) was added to a final concentration of 20 ng/mL, and incubated at 30° C. for 15 minutes. This procedure was optimized to result in ˜75% degradation of insulin. The reaction was terminated by adding 25 μL of inhibitor Ii1 (200 nM) and chilled on ice. The remaining insulin was quantified using 10 μL of the quenched enzymatic reaction using the sensitive-range protocol Homogeneous Time-Resolved FRET Insulin assay (CisBio® 62INSPEB, see FIG. 3) in 20 μL total volume according to the manufacturer's instructions (384 well-plate Greiner 784904 non-binding). Fluorescence was measured using a Tecan M1000Pro plate reader (excitation=320 nm, emission=665 and 620 nm, lag time=60 μs) according the assay manufacturer's recommendations. Blank wells and insulin standard curve were included in the assay.\nFIG. 4 compares the determined endpoint for insulin degradation with of glucagon degradation for a DMSO control, 6bK at 10 μM, and exemplary compounds of the invention at concentrations of 67 μM. […]"}, "[2]": {"target": "T2, IDE (R&D), substrate glucagon (Homo sapiens, UniProt P14735)", "T2 construct": "recombinant human IDE42-1019 (R&D Systems); purchased R&D", "T2 sequence (P14735 42-1019)": "T1 sequence (P14735 42-1019)", "experiment": "HTRF assay for IDE-mediated degradation of glucagon", "assay_type": "biochemical", "conditions": "compounds 67 μM, 0° C. for 10 minutes, versus DMSO alone, FIG. 5", "method": "A solution of 0.05 μg/mL IDE (R&D) in “Diluent #5” (CisBio, 24 μL) was transferred to a 200 μL tube strip, and combined with 1 μL of each inhibitor (10 mM in DMSO, or as a 3-fold dilution series). […] This procedure was optimized to result in ˜75% degradation of glucagon. The reaction was terminated by 1 μL of inhibitor Ii1 (5 μM) and chilled on ice. The remaining glucagon was quantified using 10 μL of the quenched enzymatic reaction using the sensitive-range protocol Homogeneous Time-Resolved FRET Glucagon assay (CisBio® 62GLCPEF, see FIG. 3) in 20 μL total volume according to the manufacturer's instructions (384 well-plate Greiner 784904 non-binding). Fluorescence was measured using a Tecan M1000Pro plate reader (excitation=340 nm, emission=665 and 620 nm, lag time=60 μs) according the assay manufacturer's recommendations. Blank wells and glucagon standard curve were included in the assay.\nFIG. 4 compares the determined endpoint for insulin degradation with of glucagon degradation for a DMSO control, 6bK at 10 μM, and exemplary compounds of the invention at concentrations of 67 μM.\nThe HTRF endpoint assay for insulin and glucagon was performed over a range of concentrations for several potential inhibitors and for 6bK."}},
  "data": [
    {"compound": "NCCCC[C@@H]1NC(=O)/C=C/C(=O)N[C@H](C(N)=O)CCCCNC(=O)[C@@H](Cc2ccc(C(=O)c3ccccc3)cc2)NC(=O)[C@H](CC2CCCCC2)NC1=O", "note": "[6bK, reference compound]", "values": [
      {"measurement": "selectivity between insulin degradation and glucagon degradation", "setting": "[1]", "value": "no selectivity"}
    ]},
    {"compound": "Cc1cccc(-c2ccc([C@@H]3[C@@H](CO)N4CCCCN(S(=O)(=O)c5ccccc5C)C[C@@H]34)cc2)c1", "note": "[compound 297]", "values": [
      {"measurement": "initial rates of glucagon cleavage", "setting": "[2]", "value": "reduced"}
    ]}
  ]
}
